US8889705B2, “Noscapine analogs and their use in treating cancers” (Emory University, priority 2007, dated 2014)
Where two headings read alike, the source gives them in different places.

Columns and labels:
tubulin [1] = target: T1, tubulin; assay: Tubulin binding assay (fluorescence titration, quenching of intrinsic tubulin fluorescence); set-up: species or system mammalian; details: 2 μM tubulin, 45 min at 37° C., double reciprocal plot; read-out: dissociation constant (Kd) for binding to tubulin
T1 construct: other: 2 μM tubulin, 45 min at 37° C., double reciprocal plot; rate and extent of tubulin polymerization; other: 25 μM or 100 μM
Protocol: Fluorescence titration for determining the tubulin binding parameters was performed as described previously (Gupta and Panda, 2002). In brief, 9-nitro-nos (0-100 μM) was incubated with 2 μM tubulin in 25 mM PIPES, pH 6.8, 3 mM MgSO4 and 1 mM EGTA for 45 min at 37° C. The relative intrinsic fluorescence intensity of tubulin was then monitored in a JASCO FP-6500 spectrofluorometer (JASCO, Tokyo, Japan) using a cuvette of 0.3-cm path length, and the excitation wavelength was 295 nm. The fluorescence emission intensity of 9-nitro-nos at this excitation wavelength was negligible. A 0.3-cm path-length cuvette was used to minimize the inner filter effects caused by the absorbance of 9-nitro-nos at higher concentration ranges. In addition, the inner filter effects were corrected using a formula Fcorrected=Fobserved·antilog [(Aex+Aem)/2], where Aex is the absorbance at the excitation wavelength and Aem is the absorbance at the emission wavelength. The dissociation constant (Kd) was determined by the formula: 1/B=Kd/[free ligand]+1, where B is the fractional occupancy and [free ligand] is the concentration of free noscapine or 9-nitro-nos. The fractional occupancy (B) was determined by the formula B=ΔF/ΔFmax, where ΔF is the change in fluorescence intensity when tubulin and its ligand are in equilibrium and ΔFmax is the value of maximum fluorescence change when tubulin is completely bound with its ligand. ΔFmax was calculated by plotting 1/ΔF versus 1/ligand using total ligand concentration as the first estimate of free ligand concentration.
Fluorescence titration for determining the tubulin binding parameters was performed as described previously. In brief, 9-F-nos, 9-Cl-nos, 9-Br-nos or 9-I-nos (0-100 μM) was incubated with 2 μM tubulin in 25 mM PIPES, pH 6.8, 3 mM MgSO4, and 1 mM EGTA for 45 min at 37° C. The relative intrinsic fluorescence intensity of tubulin was then monitored in a JASCO FP-6500 spectrofluorometer (JASCO, Tokyo, Japan) using a cuvette of 0.3-cm path length, and the excitation wavelength was 295 nm. The fluorescence emission intensity of noscapine and its derivatives at this excitation wavelength was negligible. A 0.3-cm path-length cuvette was used to minimize the inner filter effects caused by the absorbance of these agents at higher concentration ranges. In addition, the inner filter effects were corrected using a formula F corrected=F observe·antilog [(Aex+Aem)/2], where Aex is the absorbance at the excitation wavelength and Aem is the absorbance at the emission wavelength. The dissociation constant (Kd) was determined by the formula: 1/B=Kd/[free ligand]+1, where B is the fractional occupancy and [free ligand] is the concentration of 9-F-nos, 9-Cl-nos, 9-Br-nos or 9-I-nos. The fractional occupancy (B) was determined by the formula B=ΔF/ΔFmax, where ΔF is the change in fluorescence intensity when tubulin and its ligand are in equilibrium and ΔFmax is the value of maximum fluorescence change when tubulin is completely bound with its ligand. ΔFmax was calculated by plotting 1/ΔF versus 1/[free ligand].

CEM cells = assay: In vitro cell proliferation MTS assay; assay type: cell-based; details: Homo sapiens, CCRF-CEM, 72 hours
Protocol: (§1) Suspension cells (CEM, CEMNLB100 and CEM/VM-1-5) were cultured in RPMI-1640 media containing 10% FBS and then seeded into 96-well plates at a density of 5×10^3 cells per well and were treated with increasing gradient concentrations of 9-nitro-nos for 72 hours. Measurement of cell proliferation was performed colorimetrically by 3-(4,5-dimethylthiazol-2-yl)-5-(3-carboxymethoxyphenyl)-2-(4-sulphophenyl)-2H-tetrazolium, inner salt (MTS) assay, using the CellTiter96 AQueous One Solution Reagent (Promega, Madison, Wis.). Cells were exposed to MTS for 3 hours and absorbance was measured using a microplate reader (Molecular Devices, Sunnyvale, Calif.) at an optical density (OD) of 490 nm. The percentage of cell survival as a function of drug concentration for both the assays was then plotted to determine the IC50 value, which stands for the drug concentration needed to prevent cell proliferation by 50%.
as §1, with “(CEM)” for “(CEM, CEMNLB100 and CEM/VM-1-5)”, “were” for “were cultured in RPMI-1640 media containing 10% FBS and then”, “increasing” for “increasing gradient”, “all halogenated analogs” for “9-nitro-nos”

MCF-7 cells [2] = assay: Sulforhodamine B cell proliferation assay; assay type: cell-based, human; details: for IC50: Homo sapiens, MCF7, 72 h, MCF-7, 72 hours, SRB
Protocol: (§2) Sulforhodamine B (SRB) assay: The cell proliferation assay was performed in 96-well plates as described previously. Adherent cells (MCF-7 and MDA-MB-231) were seeded in 96-well plates at a density of 5×10^3 cells per well. They were treated with increasing concentrations of the halogenated analogs the next day while in log-phase growth. After 72 hours of drug treatment, cells were fixed with 50% trichloroacetic acid and stained with 0.4% sulforhodamine B dissolved in 1% acetic acid. After 30 minutes, cells were then washed with 1% acetic acid to remove the unbound dye. The protein-bound dye was extracted with 10 mM Tris base to determine the optical density at 564-nm wavelength.

MDA-MB-231 cells [3] = assay: Sulforhodamine B cell proliferation assay; assay type: cell-based; details: Homo sapiens; MDA-MB-231, 72 hours, SRB
Protocol: as §2

MCF-7 cells [4] = assay: Cell cycle analysis (propidium iodide, flow cytometry); assay type: cell-based, human; details: for G0/G1 / G2/M / S / Sub-G1: MCF-7, 25 μM, mean ± S.E.M.; for percent sub-G1 cells compared with noscapine: MCF-7, lower doses (5 μM and 10 μM), 72 hours
Protocol: The flow cytometric evaluation of the cell cycle status was performed as described previously. Briefly, 2×10^6 cells were centrifuged, washed twice with ice-cold PBS, and fixed in 70% ethanol. Tubes containing the cell pellets were stored at 4° C. for at least 24 hours. Cells were then centrifuged at 1000×g for 10 min and the supernatant was discarded. The pellets were washed twice with 5 ml of PBS and then stained with 0.5 ml of propidium iodide (0.1% in 0.6% Triton-X in PBS) and 0.5 ml of RNase A (2 mg/ml) for 45 minutes in dark. Samples were then analyzed on a FACSCalibur flow cytometer (Beckman Coulter Inc., Fullerton, Calif.).

MDA-MB-231 cells [5] = assay: DAPI staining, cell morphology by fluorescence microscopy; assay type: cell-based, human; details: 25 μM, 72 hours
Protocol: Cell morphology was evaluated by fluorescence microscopy following DAPI staining (Vectashield, Vector Labs, Inc., Burlingame, Calif.). MDA-MB-231 cells were grown on poly-L-lysine coated coverslips in 6-well plates and were treated with the halogenated analogs at 25 μM for 72 hours. After incubation, coverslips were fixed in cold methanol and washed with PBS, stained with DAPI, and mounted on slides. Images were captured using a BX60 microscope (Olympus, Tokyo, Japan) with an 8-bit camera (Dage-MTI, Michigan City, Ind.) and IP Lab software (Scanalytics, Fairfax, Va.). Apoptotic cells were identified by features characteristic of apoptosis (e.g. nuclear condensation, formation of membrane blebs and apoptotic bodies).

tubulin [6] = target: T1, tubulin; details: values with literature reference [18], [12], [43]; read-out: dissociation constant (Kd) for binding to tubulin; cited from earlier work

Question: Which results are given for `COc1ccc2c(c1OC)C(=O)O[C@@H]2[C@H]1c2c(c(F)c3c(c2OC)OCO3)CCN1C` [9-F-nos, (S)-6,7-dimethoxy-3-((R)-4-methoxy-6-methyl-9-fluoro-5,6,7,8-tetrahydro-[1,3]dioxolo[4,5-g]isoquinolin-5-yl)isobenzofuran-1(3H)-one]?
Answer: Kd (tubulin [1]): 81 ± 8 µM; IC50 (CEM cells): 2.3 ± 0.7 µM; IC50 (MCF-7 cells [2]): 3.3 ± 0.8 µM; IC50 (MDA-MB-231 cells [3]): 8.2 ± 0.6 µM; G0/G1 (MCF-7 cells [4]; 0 h): 67.7 ± 5.6%; G2/M (MCF-7 cells [4]; 0 h): 18.5 ± 2.2%; S (MCF-7 cells [4]; 0 h): 11.9 ± 1.5%; Sub-G1 (MCF-7 cells [4]; 0 h): 0.2 ± 0.04%; G0/G1 (MCF-7 cells [4]; 24 h): 10.8 ± 2.4%; G2/M (MCF-7 cells [4]; 24 h): 65.9 ± 4.4%; S (MCF-7 cells [4]; 24 h): 3.8 ± 1.1%; Sub-G1 (MCF-7 cells [4]; 24 h): 6.8 ± 2.1%; G0/G1 (MCF-7 cells [4]; 48 h): 7.9 ± 2.8%; G2/M (MCF-7 cells [4]; 48 h): 43.7 ± 2.9%; S (MCF-7 cells [4]; 48 h): 3.5 ± 0.8%; Sub-G1 (MCF-7 cells [4]; 48 h): 34.5 ± 2.5%; G0/G1 (MCF-7 cells [4]; 72 h): 5.2 ± 2.2%; G2/M (MCF-7 cells [4]; 72 h): 34.4 ± 3.4%; S (MCF-7 cells [4]; 72 h): 3.6 ± 1.5%; Sub-G1 (MCF-7 cells [4]; 72 h): 48.6 ± 3.3%; percent sub-G1 cells compared with noscapine (MCF-7 cells [4]): higher; nuclear morphology (features of apoptotic cells), DAPI (MDA-MB-231 cells [5]): condensed chromosomes, numerous fragmented micronuclei, and apoptotic bodies are evident

Question: With `COc1ccc2c(c1OC)C(=O)O[C@@H]2[C@H]1c2c(c(Br)c3c(c2OC)OCO3)CCN1C` [9-Br-nos, (S)-6,7-dimethoxy-3-((R)-4-methoxy-6-methyl-9-bromo-5,6,7,8-tetrahydro-[1,3]dioxolo[4,5-g]isoquinolin-5-yl)isobenzofuran-1(3H)-one] as the compound, how does the Kd (tubulin [1]) read?
Answer: 54 ± 9.1 µM

Question: And the IC50 (CEM cells)?
Answer: 1.9 ± 0.2 µM

Question: And the IC50 (MCF-7 cells [2])?
Answer: 1 ± 0.2 µM

Question: What about the “fold higher cytotoxic activity than noscapine” value (MCF-7 cells [2]; MCF-7, ratio of IC50) of the same compound?
Answer: ~40 fold

Question: What about the IC50 (MDA-MB-231 cells [3]) of the same compound?
Answer: 3.3 ± 0.4 µM

Question: And the G0/G1 (MCF-7 cells [4]; 0 h)?
Answer: 53.3 ± 2.8%

Question: What about the G2/M (MCF-7 cells [4]; 0 h) of the same compound?
Answer: 28.9 ± 4.4%

Question: What about the S (MCF-7 cells [4]; 0 h) of the same compound?
Answer: 12.7 ± 1.8%

Question: What about the Sub-G1 (MCF-7 cells [4]; 0 h) of the same compound?
Answer: 0.2 ± 0.1%

Question: And the G0/G1 (MCF-7 cells [4]; 24 h)?
Answer: 10.4 ± 1.8%

Question: And the G2/M (MCF-7 cells [4]; 24 h)?
Answer: 61.9 ± 3.6%

Question: What about the S (MCF-7 cells [4]; 24 h) of the same compound?
Answer: 3.4 ± 1.2%

Question: What about the Sub-G1 (MCF-7 cells [4]; 24 h) of the same compound?
Answer: 6.9 ± 2.4%

Question: And the G0/G1 (MCF-7 cells [4]; 48 h)?
Answer: 6.5 ± 2.5%

Question: What about the G2/M (MCF-7 cells [4]; 48 h) of the same compound?
Answer: 43.8 ± 3.4%

Question: What about the S (MCF-7 cells [4]; 48 h) of the same compound?
Answer: 2.8 ± 0.7%

Question: And the Sub-G1 (MCF-7 cells [4]; 48 h)?
Answer: 35.1 ± 3.5%

Question: And the G0/G1 (MCF-7 cells [4]; 72 h)?
Answer: 4.6 ± 2.1%

Question: And the G2/M (MCF-7 cells [4]; 72 h)?
Answer: 33.7 ± 3.5%

Question: And the S (MCF-7 cells [4]; 72 h)?
Answer: 2.4 ± 1.6%

Question: And the Sub-G1 (MCF-7 cells [4]; 72 h)?
Answer: 49.6 ± 2.7%

Question: And the “percent sub-G1 cells compared with noscapine” value (MCF-7 cells [4])?
Answer: higher

Question: And the “nuclear morphology (features of apoptotic cells), DAPI” value (MDA-MB-231 cells [5])?
Answer: condensed chromosomes, numerous fragmented micronuclei, and apoptotic bodies are evident

Question: And the Kd (tubulin [6])?
Answer: 54 ± 9.1 µM
